# Test results: US9427415B2, “Methods and compositions for modifying sensorial perception” (The Procter & Gamble Company, priority 2014, dated 2016)
# Where a name gives a salt, the structure may show the parent alone. Read-outs that look alike come from different tables or passages of the source.
# Tests used:
# [1] = molecular target: T1, human TRPA1 (Homo sapiens, UniProt O75762, K186N/R3C/R58T); assay: Intracellular calcium (Fluo-4, FLIPR) activation of TRPA1 cells by GRAS compounds; type: cell-based; details: for activation at 1000 µM / activation at 100 µM: read-out: A1 activation, % of agonist value;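 on all read-outs here: TRPA1-expressing cells, fluorescence read on a FLIPR Tetra (ex 488 nm, em 514 nm) every 2 s for 10 min after compound addition, baseline subtracted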
# T1 construct: expressed in transfected cells; pcDNA3 control cells
# T1 sequence (O75762 whole entry R3C/R58T/K186N): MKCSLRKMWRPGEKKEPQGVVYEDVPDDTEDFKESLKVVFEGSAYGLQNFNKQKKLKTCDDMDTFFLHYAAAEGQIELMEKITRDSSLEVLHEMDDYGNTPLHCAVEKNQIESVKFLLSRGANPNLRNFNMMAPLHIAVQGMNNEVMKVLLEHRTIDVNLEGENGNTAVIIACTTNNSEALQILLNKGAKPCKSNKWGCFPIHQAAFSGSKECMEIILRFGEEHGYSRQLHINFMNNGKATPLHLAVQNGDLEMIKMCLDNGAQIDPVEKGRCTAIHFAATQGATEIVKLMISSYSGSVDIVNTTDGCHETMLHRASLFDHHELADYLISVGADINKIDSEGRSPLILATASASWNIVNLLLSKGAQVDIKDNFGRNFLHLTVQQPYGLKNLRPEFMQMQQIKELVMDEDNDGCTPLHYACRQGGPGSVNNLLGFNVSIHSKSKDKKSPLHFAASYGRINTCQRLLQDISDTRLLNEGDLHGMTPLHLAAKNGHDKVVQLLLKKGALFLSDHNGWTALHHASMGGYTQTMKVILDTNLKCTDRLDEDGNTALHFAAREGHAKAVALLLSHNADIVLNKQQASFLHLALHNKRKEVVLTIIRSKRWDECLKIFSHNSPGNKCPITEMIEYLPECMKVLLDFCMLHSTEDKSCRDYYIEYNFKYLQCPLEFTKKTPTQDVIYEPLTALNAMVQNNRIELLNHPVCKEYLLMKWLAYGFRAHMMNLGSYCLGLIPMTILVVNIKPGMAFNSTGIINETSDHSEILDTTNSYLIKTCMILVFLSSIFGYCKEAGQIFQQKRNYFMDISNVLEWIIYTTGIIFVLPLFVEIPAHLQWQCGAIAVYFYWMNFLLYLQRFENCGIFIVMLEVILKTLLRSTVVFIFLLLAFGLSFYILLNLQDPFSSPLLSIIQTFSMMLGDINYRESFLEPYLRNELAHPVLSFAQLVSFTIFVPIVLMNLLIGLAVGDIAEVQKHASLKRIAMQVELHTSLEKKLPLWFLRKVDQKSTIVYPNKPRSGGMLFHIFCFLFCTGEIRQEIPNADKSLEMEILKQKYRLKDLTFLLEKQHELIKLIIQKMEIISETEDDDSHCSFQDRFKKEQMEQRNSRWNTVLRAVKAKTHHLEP
# [2] = system: TRPA1V1; assay: Intracellular calcium (Fluo-4, FLIPR) activation of TRPA1V1 cells (co-expressing TRPA1 and TRPV1) by GRAS compounds; type: cell-based, human; details: relative to AITC 30 μM;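 further: HEK293 cells co-expressing TRPA1 and TRPV1, fluorescence read at 488/514 nm after baseline subtraction, recorded every 2 s over 10 min, ionomycin 10 µM and buffer as controls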
# [3] = Table 1(c), 1 mM, relative to AITC 30 μM
# [4] = Table 1(d), 1 mM, relative to AITC 30 μM
# [5] = Table 1(c), 100 μM (*), relative to AITC 30 μM
# [6] = Table 1(e), 1 mM, relative to AITC 30 μM
compound,measurement,setting,value
C=C(C)[C@@H]1CCC2=CCC[C@@H](C)[C@]2(C)C1 [Valencene],"A1 activation, % of agonist value",[1]; [3],61.97%
same,"A1V1 activation, % of agonist value","[2]; Table 1(c), 1 mM",66.32%
CCCCCCOC(=O)c1cccnc1 [Hexyl nicotinate],activation at 1000 µM,[1]; [4],72.9%
same,"A1V1 activation, % of agonist value","[2]; Table 1(d), 1 mM",54.4%
"CCCCCCC/C=C/C=C/C=O [(E,E)-2,4-Dodecadienal]",activation at 1000 µM,[1]; [4],159%
same,"A1V1 activation, % of agonist value","[2]; Table 1(d), 1 mM",55.4%
OCC=Cc1ccccc1 [Cinnamyl alcohol],activation at 1000 µM,[1],89.8%
same,"A1V1 activation, % of agonist value","[2]; Table 1(c), 1 mM",79.4%
S=C=NCCc1ccccc1 [Phenethyl isothiocyanate],activation at 1000 µM,[1]; [3],92%
same,"A1V1 activation, % of agonist value","[2]; Table 1(c), 1 mM",81.46%
CC=CC(=O)CC [2-Hexen-4-one],activation at 1000 µM,[1]; [4],53%
same,"A1V1 activation, % of agonist value","[2]; Table 1(d), 1 mM",24.5%
CCOC(=O)C(Cc1ccccc1)C(C)=O (centres unmarked) [Ethyl 2-benzylacetoacetate],activation at 1000 µM,[1],98%
same,"A1V1 activation, % of agonist value","[2]; Table 1(c), 1 mM",115%
"CC/C=C/CC/C=C/C=O [(E,E)-2,6-Nonadienal]",activation at 1000 µM,[1]; [3],87.1%
same,"A1V1 activation, % of agonist value","[2]; Table 1(c), 1 mM",89.61%
CCCCCCCCCC(C)C=O (centres unmarked) [2-Methylundecanal],activation at 100 µM,[1]; [5],54.9%
same,"A1V1 activation, % of agonist value","[2]; Table 1(c), 100 μM (*)",57.3%
CC(C)CC=C(C=O)c1ccccc1 [5-Methy1-2-pheny1-2-hexenal],"A1 activation, % of agonist value",[1]; [6],60.5%
same,"A1V1 activation, % of agonist value","[2]; Table 1(e), 1 mM",89.8%
C=C(C)CCC[C@H](C)CCOC(=O)CC [Rhodinyl propionate],"A1 activation, % of agonist value",[1]; [3],75.56%
same,"A1V1 activation, % of agonist value","[2]; Table 1(c), 1 mM",86.44%
Cc1ccc(O)cc1 [p-Cresol],activation at 1000 µM,[1]; [4],61%
same,"A1V1 activation, % of agonist value","[2]; Table 1(d), 1 mM",38.52%
COc1ccccc1C=CC=O [O-Methoxycinnamaldehyde],"A1 activation, % of agonist value",[1]; [3],65.3%
same,"A1V1 activation, % of agonist value","[2]; Table 1(c), 1 mM",55.99%
C/C=C/C=C/C(=O)OC [Methyl sorbate],activation at 1000 µM,[1]; [3],76%
same,activation at 1000 µM,[1]; [6],46.4%
same,"A1V1 activation, % of agonist value","[2]; Table 1(c), 1 mM",81.15%
same,"A1V1 activation, % of agonist value","[2]; Table 1(e), 1 mM",83.3%
CC(C)[C@@H]1CC[C@@H](C)C[C@H]1O (racemic) [DL-Menthol],"A1 activation, % of agonist value",[1]; [3],54.02%
same,"A1V1 activation, % of agonist value","[2]; Table 1(c), 1 mM",43.05%
C=C(C)CCC[C@H](C)CCO [Rhodinol],activation at 1000 µM,[1]; [4],116%
same,"A1V1 activation, % of agonist value","[2]; Table 1(d), 1 mM",78.75%
"Cc1ccc(C(C)O)cc1 (stereo not drawn) [Benzyl alcohol, p,alpha-dimethyl-]","A1 activation, % of agonist value",[1]; [3],77.2%
same,"A1V1 activation, % of agonist value","[2]; Table 1(c), 1 mM",71.8%
O=Cc1ccccc1O [Salicylaldehyde],activation at 1000 µM,[1]; [3],66.9%
same,"A1V1 activation, % of agonist value","[2]; Table 1(c), 1 mM",65.6%
CCCCCC=CC(=O)O [2-Octenoic acid],activation at 1000 µM,[1]; [3],55.9%
same,"A1V1 activation, % of agonist value","[2]; Table 1(c), 1 mM",61.77%
O=CC=Cc1ccccc1 [Cinnamaldehyde],activation at 1000 µM,[1],51.2%
same,"A1V1 activation, % of agonist value","[2]; Table 1(e), 1 mM",77.3%
C=C(C)CCC[C@H](C)CCOC(=O)CC(C)C [Rhodinyl isovalerate],"A1 activation, % of agonist value",[1]; [3],54.92%
same,"A1V1 activation, % of agonist value","[2]; Table 1(c), 1 mM",48.29%
CCCC=CC(C)=O [3-Hepten-2-one],activation at 1000 µM,[1]; [4],82%
same,"A1V1 activation, % of agonist value","[2]; Table 1(d), 1 mM",59%
CSCCC=O [3-(Methylthio)propionaldehyde],activation at 1000 µM,[1]; [4],53.8%
same,"A1V1 activation, % of agonist value","[2]; Table 1(d), 1 mM",32.4%
C/C=C(\C)C(=O)OC(CC)CCCCC (centres unmarked) [1-Ethylhexyl Tiglate],activation at 1000 µM,[1]; [4],50.6%
same,"A1V1 activation, % of agonist value","[2]; Table 1(d), 1 mM",31.87%
CCCCCOC(=O)c1ccco1 [Amyl furoate],"A1 activation, % of agonist value",[1]; [3],81.09%
same,"A1V1 activation, % of agonist value","[2]; Table 1(c), 1 mM",87.70%
CC1=CC(=O)CCC1 [3-Methyl-2-cyclohexen-1-one],activation at 1000 µM,[1]; [3],94.5%
same,"A1V1 activation, % of agonist value","[2]; Table 1(c), 1 mM",94.76%
"Cc1ccc(CO)o1 [2-Furanmethanol, 5-methyl-]",activation at 1000 µM,[1]; [3],77.3%
same,"A1V1 activation, % of agonist value","[2]; Table 1(c), 1 mM",76.02%
CCOC(=O)c1ccc(OC)cc1 [Ethyl p-anisate],activation at 1000 µM,[1]; [3],91.2%
same,"A1V1 activation, % of agonist value","[2]; Table 1(c), 1 mM",93.1%
C=CCCC=O [4-Pentenal],activation at 1000 µM,[1]; [3],75.4%
same,"A1V1 activation, % of agonist value","[2]; Table 1(c), 1 mM",84.24%
COC(=O)c1ccccc1OC [Methyl 2-methoxybenzoate],activation at 1000 µM,[1]; [3],71.2%
same,"A1V1 activation, % of agonist value","[2]; Table 1(c), 1 mM",74.68%
CCCCCCCCOC(=O)c1ccco1 [Octyl 2-furoate],activation at 1000 µM,[1]; [4],54.3%
same,"A1V1 activation, % of agonist value","[2]; Table 1(d), 1 mM",40.60%
CC(C)OC(=O)Cc1ccccc1 [Isopropyl phenylacetate],activation at 1000 µM,[1]; [4],80.2%
same,"A1V1 activation, % of agonist value","[2]; Table 1(d), 1 mM",60.9%
COc1ccc(C=O)cc1OC [Veratraldehyde],activation at 1000 µM,[1]; [3],73.8%
same,"A1V1 activation, % of agonist value","[2]; Table 1(c), 1 mM",69.76%
CCOc1cc(C2OCC(C)O2)ccc1O (centres unmarked) [Ethyl vanillin propylene glycol acetal],"A1 activation, % of agonist value",[1]; [3],66.41%
same,"A1V1 activation, % of agonist value","[2]; Table 1(c), 1 mM",72.64%
COc1ccc(C=C(C)C=O)cc1 [Alpha Methyl-4-methoxycinnamaldehyde],activation at 1000 µM,[1]; [6],67.1%
same,"A1V1 activation, % of agonist value","[2]; Table 1(e), 1 mM",85.80%
C=C(C)CCCC(C)CCOC(C)=O (centres unmarked) [Rhodinyl acetate],"A1 activation, % of agonist value",[1]; [3],89.06%
same,"A1V1 activation, % of agonist value","[2]; Table 1(c), 1 mM",89.69%
CCCCCCCCC/C=C/C=O [Trans-2-dodecenal],activation at 100 µM,[1]; [5],79.1%
same,"A1V1 activation, % of agonist value","[2]; Table 1(c), 100 μM (*)",66%
CC(=O)OCCC(C)C [Isoamyl acetate],activation at 1000 µM,[1]; [3],49.6%
same,"A1V1 activation, % of agonist value","[2]; Table 1(c), 1 mM",61.80%
CCCOC(=O)c1ccccc1 [Propyl benzoate],activation at 1000 µM,[1]; [4],40.7%
same,"A1V1 activation, % of agonist value","[2]; Table 1(d), 1 mM",25.7%
CC1=CCCC(C)(C)C12CCC(C)O2 (centres unmarked) [Theaspirane],"A1 activation, % of agonist value",[1]; [3],99%
same,"A1V1 activation, % of agonist value","[2]; Table 1(c), 1 mM",84%
O=C(O)C=Cc1ccccc1 [Cinnamic acid],activation at 1000 µM,[1]; [3],37.7%
same,"A1V1 activation, % of agonist value","[2]; Table 1(c), 1 mM",42.5%
CCCCCC(C=O)=Cc1ccccc1 [alpha-Amylcinnamaldehyde],activation at 1000 µM,[1]; [3],86.6%
same,"A1V1 activation, % of agonist value","[2]; Table 1(c), 1 mM",82.7%
COC(=O)c1ccc(O)cc1 [Methylparaben],activation at 1000 µM,[1]; [3],62%
same,"A1V1 activation, % of agonist value","[2]; Table 1(c), 1 mM",66.33%
"CC1(O)CSC(C)(O)CS1 (centres unmarked) [2,5-dimethyl-1,4-dithilane-2,5-diol]","A1 activation, % of agonist value",[1]; [5],77.5%
same,"A1V1 activation, % of agonist value","[2]; Table 1(c), 100 μM (*)",87.2%
CCC/C=C/COC(=O)CCC [trans-2-Hexenyl butyrate],activation at 1000 µM,[1]; [4],48.9%
same,"A1V1 activation, % of agonist value","[2]; Table 1(d), 1 mM",20%
CC(C=O)Cc1ccc(C(C)C)cc1 (centres unmarked) [Cyclamen aldehyde],"A1 activation, % of agonist value",[1]; [6],94.1%
same,"A1V1 activation, % of agonist value","[2]; Table 1(e), 1 mM",120.9%
CCCCCCOC(=O)CCC [Hexyl butyrate],activation at 1000 µM,[1]; [6],43.2%
same,"A1V1 activation, % of agonist value","[2]; Table 1(e), 1 mM",55.89%
2-mercaptopropanoate,"A1 activation, % of agonist value",[1]; [4],101.5%
same,"A1V1 activation, % of agonist value","[2]; Table 1(d), 1 mM",54.3%
"SCCCCCCS [1,6-Hexanedithiol]",activation at 1000 µM,[1]; [3],68.6%
same,"A1V1 activation, % of agonist value","[2]; Table 1(c), 1 mM",54%
CC(=O)OCc1ccco1 [Furfuryl acetate],activation at 1000 µM,[1]; [4],120%
same,"A1V1 activation, % of agonist value","[2]; Table 1(d), 1 mM",91.3%
"CC1=NC(CC(C)C)SC1C (centres unmarked) [3-Thiazoline, 4,5-dimethyl-2-isobutyl-]",activation at 1000 µM,[1]; [3],142%
same,"A1V1 activation, % of agonist value","[2]; Table 1(c), 1 mM",138.7%
CCCCCCCCCO [Nonyl alcohol],activation at 1000 µM,[1]; [3],71.1%
same,"A1V1 activation, % of agonist value","[2]; Table 1(c), 1 mM",69.4%
CCCC=C1OC(=O)c2ccccc21 [3-Butylidenephthalide],activation at 1000 µM,[1]; [3],119%
same,"A1V1 activation, % of agonist value","[2]; Table 1(c), 1 mM",115.4%
CCCCCCC#CC(=O)OC [Methyl 2-nonynoate],activation at 1000 µM,[1]; [4],101%
same,"A1V1 activation, % of agonist value","[2]; Table 1(d), 1 mM",76.1%
CCCC(CCOC(C)=O)SC(C)=O (centres unmarked) [3-(Acetylmercapto)hexyl acetate],activation at 1000 µM,[1]; [6],22.3%
same,"A1V1 activation, % of agonist value","[2]; Table 1(e), 1 mM",52.79%
CCC(=O)Oc1c(C)occc1=O [Maltol propionate],"A1 activation, % of agonist value",[1]; [3],85.04%
same,"A1V1 activation, % of agonist value","[2]; Table 1(c), 1 mM",81.97%
COc1ccc(COC=O)cc1 [Anisyl formate],"A1 activation, % of agonist value",[1]; [3],89.5%
same,"A1V1 activation, % of agonist value","[2]; Table 1(c), 1 mM",78.2%
CC(=O)SCc1ccco1 [Furfurylthiol acetate],"A1 activation, % of agonist value",[1]; [4],75.5%
same,"A1V1 activation, % of agonist value","[2]; Table 1(d), 1 mM",60%
Ammonium carbonate,"A1V1 activation, % of agonist value","[2]; Table 1(c), 1 mM",58.42%
